In one assay the test system is KKA^y mouse. In words: Measurement of Hypoglycemic Effect, KKAy mouse. The assay is classed as in vivo. The conditions noted are these: oral, 24 hours after administration, read-out: % decrease (percentage of reducing blood glucose). As to the method:
(§1) KK mouse and KKAy mouse, NIDDM models (male, 6-7 weeks old) (Nakamura, Proc. Jpn. Acad. 38, 348-352, 1962; Iwatsuka et al. Endocrinol Jpn, 17, 23-35, 1970) were purchased from Nihon Clea. They were allowed free access to high-calories' chow (CMF, Oriental Yeast) and water. Around 40 g-weighted mice were examined.
(§2) Blood (20 μl) collected from the retro-orbital sinus was diluted in 60 units heparin sodium-solution and was centrifuged in a microfuge. The supernatant was assayed. The glucose concentration was determined by glucose oxidase method (Glucose Analyzer II, Beckman).
(§3) All test-compounds suspended in 0.5% carboxy-methyl cellulose (CMC)-saline were orally administered in mice. Before and 24 hours after the administration, blood was collected from the retro-orbital sinus, and a blood glucose value was measured in the above-mentioned manner. The hypoglycemic activity was expressed by the percentage of reducing blood glucose calculated before and 24 hours after the administration.

Assay [1] relates to bovine serum albumin (BSA). The experiment in a line: Measurement of Anti-Glycation Effect. The assay is classed as biochemical. As to conditions: for % decrease (anti-glycation effect, fluorescence per mg protein, percentage of the control): 5% BSA-0.5M G6P, 37° C., 10 day-incubation; for anti-glycation activities (in words): Test Example 2. As to the method: Because glycated protein is fluorescent, the amount of glycated protein can be determined using fluorescence, according to the previous reports (Doi et al., Proc. Natl. Acad. Sci. U.S.A., 89, 2873-2877, 1992: Mitsuhashi et al., Diabetes, vol. 42, 826-832, 1993). The experimental procedure was modified as follows. Five percent of bovine serum albumin (BSA) containing 0.5M glucose-6-phosphate-2Na (5% BSA-0.5M G6P) was filtration-sterilized (with 0.45 μm-pore size filter) and was incubated at 37° C.; positive control was incubated with 1% dimethyl sulfoxide (DMSO) at 37° C.; blank was incubated at 4° C. All test-compounds dissolved in DMSO (final concentration of DMSO was less than 1%) were added in 5% BSA-0.5M G6P. After 10 day-incubation 5% BSA-0.5M G6P with a compound, positive control and blank were dialyzed against 2L phosphate buffered saline for 24 hours (fractional molecular weight: 12,000-14,000).The dialyzed solution was diluted in water 4 times and was determined the fluorescence (ex. 370 nm-em. 440 nm). The protein concentration of the dialyzed solution (10 μL of which was diluted to 20 times with distilled water) was determined by Lowry-method and the fluorescence was expressed per mg protein. Control (100%) was positive control minus blank. Anti-glycation effect was calculated as the percentage of the control.

The subject of another assay is KK mouse. The experiment in a line: Measurement of Hypoglycemic Effect, KK mouse. The assay is classed as in vivo. As to conditions: for % decrease (percentage of reducing blood glucose): KK mouse, 30 mg/kg, oral, 24 hours after administration. On the procedure:
as §1, §2, §3

The test system of assay [2] is AGE protein on arterial walls. The conditions noted are these: rat suffering from diabetes; Science, vol. 232, p. 1629 (1986); cited from earlier work.

SMILES strings stand for the structures.

For the compound `Cc1oc(-c2ccccc2)nc1CCC(=O)c1ccc(CC2SC(=O)NC2=O)cc1` (stereo not shown) [CP-86325], in the assay on KKA^y mouse, the inhibition in vivo at 30 mg/kg was found to be 39.5%. In addition, the “% decrease (anti-glycation effect, fluorescence per mg protein, percentage of the control)” value in assay [1] (100 μg/ml) was 10.3%. Also, the “anti-glycation activities (in words)” value in assay [1] is “did not exhibit anti-glycation activities”. The “% decrease (percentage of reducing blood glucose)” value in the assay on KK mouse amounted to 39.4%.

In the case of `Cc1c(C)c2c(c(C)c1O)CCC(C)(COc1ccc(CC3SC(=O)NC3=O)cc1)O2` (stereo not shown) [CS-045], the inhibition in vivo at 30 mg/kg in the assay on KKA^y mouse is -3%. Also, in assay [1] (100 μg/ml), the “% decrease (anti-glycation effect, fluorescence per mg protein, percentage of the control)” value is given as 10.1%. Also, the “anti-glycation activities (in words)” value in assay [1] was “did not exhibit anti-glycation activities”. Also, the “% decrease (percentage of reducing blood glucose)” value with KK mouse worked out at 24.2%.

As for `Cc1oc(-c2ccccc2)nc1C(=O)COc1ccc(C=C2SC(=O)NC2=O)nc1` [I-1a-1, 5-((5-(2-oxo-2-(2-phenyl-5-methyl-4-oxazolyl)ethoxy)-2-pyridyl)methylidene)thiazolidin-2,4-dione], the inhibition in vivo at 30 mg/kg in the assay on KKA^y mouse turned out to be 48.6%. Further, the “% decrease (anti-glycation effect, fluorescence per mg protein, percentage of the control)” value in assay [1] (100 μg/ml) is listed as 42.3%. For the same compound, the “% decrease (percentage of reducing blood glucose)” value with KK mouse was 48.9%.

On to `COCOc1ccc(C=C2SC(=O)NC2=O)nc1` [I-1a-2], for which the “% decrease (anti-glycation effect, fluorescence per mg protein, percentage of the control)” value in assay [1] (100 μg/ml) worked out at 24.1%.

On to `O=C1NC(=O)C(=Cc2ccc(OCc3ccccc3)cn2)S1` [I-1a-3], for which the “% decrease (anti-glycation effect, fluorescence per mg protein, percentage of the control)” value in assay [1] (100 μg/ml) is given as 34.1%.

Consider `Cc1oc(-c2ccc(-c3ccccc3)cc2)nc1C(O)COc1ccc(C=C2SC(=O)NC2=O)nc1` (stereo not shown) [I-1a-43], for which the inhibition in vivo at 30 mg/kg in the assay with KKA^y mouse was found to be 47.3%.

As to `Cc1oc(-c2ccccc2)nc1C(=O)COc1ccc(CC2SC(=O)NC2=O)nc1` (stereo not shown) [I-2a-1, 5-((5-(2-oxo-2-(2-phenyl-5-methyl-4-oxazolyl)ethoxy)-2-pyridyl)methyl)thiazolidin-2,4-dione], in the assay on KKA^y mouse, the inhibition in vivo at 30 mg/kg was found to be 50%. Also, the “% decrease (percentage of reducing blood glucose)” value with KK mouse is given as 65.1%.

For `COCOc1ccc(CC2SC(=O)NC2=O)nc1` (stereo not shown) [I-2a-2], the inhibition in vivo at 30 mg/kg with KKA^y mouse stood at 39.9%.

As to `Cc1cccc(-c2nc(C(=O)COc3ccc(CC4SC(=O)NC4=O)nc3)c(C)o2)c1` (stereo not shown) [I-2a-5], the inhibition in vivo at 30 mg/kg in the assay on KKA^y mouse stood at 47.7%.

On to `Cc1oc(-c2ccc(F)cc2)nc1C(O)COc1ccc(CC2SC(=O)NC2=O)nc1` (stereo not shown) [I-2a-30], for which the inhibition in vivo at 30 mg/kg with KKA^y mouse was 37.2%.

Turning to `Cc1oc(-c2ccc(-c3ccccc3)cc2)nc1C(O)COc1ccc(CC2SC(=O)NC2=O)nc1` (stereo not shown) [I-2a-31], the inhibition in vivo at 30 mg/kg with KKA^y mouse came to 52.2%.

In the case of `Cc1ccc(-c2nc(C(O)COc3ccc(CC4SC(=O)NC4=O)nc3)c(C)o2)cc1` (stereo not shown) [I-2a-32], the inhibition in vivo at 30 mg/kg in the assay on KKA^y mouse came out at 35.4%.

On to `N=C(N)NN` [aminoguanidine], for which the results for the “% decrease (anti-glycation effect, fluorescence per mg protein, percentage of the control)” value in assay [1] (1 mM), in assay [1] (10 mM) and in assay [1] (100 mM) were 21.4%, 48.9% and 80.2%, respectively. Also, the “prevention of formation of AGE protein on arterial walls (in words)” value in assay [2] is given as “prevents formation of AGE protein on arterial walls”.

Consider `COc1ccc(Cl)cc1C(=O)NCCc1ccc(S(=O)(=O)NC(=O)NC2CCCCC2)cc1` [glibenclamide], for which the inhibition in vivo at 30 mg/kg with KKA^y mouse is -2.5%. Moreover, the “% decrease (percentage of reducing blood glucose)” value in the assay on KK mouse was -3.6%. Moreover, the “hypoglycemic activity (in words)” value in the assay on KK mouse (Test Example 1, KK and KKAy mouse, 30 mg/kg oral) is on record as “did not exhibit hypoglycemic activity”.

The values above are taken from patent publication US5955481A, “Pyridine type thiazolidines” (Nissan Chemical Industries, Ltd., priority 1994, dated 1999).
